According to PubChem BioAssay AID248 (DTP/NCI, 2004):
Values joined by “and” are separate entries in the source; they are usually repeats but may differ in a detail not shown here. Equal entries are not always repeated. Inconclusive results and toxic doses are left out. No stated cut-off is given here; in the data, active means T/C of 150% or more; inactive means T/C below 125%.

Tested on: L1210 leukemia ip in BDF1 mice, survival T/C
Test: NCI In Vivo Anticancer Drug Screen. Data for tumor model L1210 Leukemia (intraperitoneal) in B6D2F1 (BDF1) mice
Settings: endpoint: mean survival time, higher = longer survival
In short: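 Each compound was tested against a transplantable tumor grown in mice. The endpoint was survival, with treated animals benchmarked against vehicle controls as a simple ratio.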

[1] = dose: 100.0 mg/kg/injection, schedule: Q01DX009 (ip), vehicle: saline
[2] = dose: 100.0 mg/kg/injection, schedule: Q01DX009 (ip), vehicle: Klucel (hydroxypropylcellulose) (HPC)
[3] = dose: 200.0 mg/kg/injection, schedule: Q01DX009 (ip), vehicle: Klucel (hydroxypropylcellulose) (HPC)
[4] = dose: 400.0 mg/kg/injection, schedule: Q01DX009 (ip), vehicle: Klucel (hydroxypropylcellulose) (HPC)
[5] = dose: 100.0 mg/kg/injection, schedule: Q04DX003 (ip), vehicle: Klucel (hydroxypropylcellulose) (HPC)
[6] = dose: 200.0 mg/kg/injection, schedule: Q04DX003 (ip), vehicle: Klucel (hydroxypropylcellulose) (HPC)
[7] = dose: 400.0 mg/kg/injection, schedule: Q04DX003 (ip), vehicle: Klucel (hydroxypropylcellulose) (HPC)
[8] = dose: 12.5 mg/kg/injection, schedule: Q01DX009 (ip), vehicle: Klucel (hydroxypropylcellulose) (HPC)
[9] = dose: 25.0 mg/kg/injection, schedule: Q01DX009 (ip), vehicle: Klucel (hydroxypropylcellulose) (HPC)
[10] = dose: 25.0 mg/kg/injection, schedule: Q04DX003 (ip), vehicle: Klucel (hydroxypropylcellulose) (HPC)
[11] = dose: 50.0 mg/kg/injection, schedule: Q01DX009 (ip), vehicle: Klucel (hydroxypropylcellulose) (HPC)
[12] = dose: 50.0 mg/kg/injection, schedule: Q04DX003 (ip), vehicle: Klucel (hydroxypropylcellulose) (HPC)
[13] = dose: 100.0 mg/kg/injection, schedule: Q04DX002 (ip), vehicle: Klucel (hydroxypropylcellulose) (HPC)

Measured: T/C

COCCCNCC(=O)N1CCN(C(=O)CNCCCOC)CC1
inactive: dose: 50.0 mg/kg/injection, schedule: Q01DX001 (ip), vehicle: carboxymethylcellulose (CMC) 92 % of control | dose: 100.0 mg/kg/injection, schedule: Q01DX001 (ip), vehicle: carboxymethylcellulose (CMC) 92 % of control | dose: 200.0 mg/kg/injection, schedule: Q01DX001 (ip), vehicle: carboxymethylcellulose (CMC) 92 % of control | dose: 400.0 mg/kg/injection, schedule: Q01DX001 (ip), vehicle: carboxymethylcellulose (CMC) 95 % of control

Cc1ccc(/C=N/NC(=O)CNC(=O)c2ccccc2)cc1
inactive: dose: 100.0 mg/kg/injection, schedule: Q01DX009 (ip), vehicle: saline with Tween-80 93 % of control | dose: 200.0 mg/kg/injection, schedule: Q01DX009 (ip), vehicle: saline with Tween-80 96 % of control | dose: 400.0 mg/kg/injection, schedule: Q01DX009 (ip), vehicle: saline with Tween-80 98 % of control

OCC(O)CCBr (stereo unspecified)
inactive: dose: 100.0 mg/kg/injection, schedule: Q01DX001 (ip), vehicle: saline 100 % of control | [1] 107 % of control | dose: 200.0 mg/kg/injection, schedule: Q01DX001 (ip), vehicle: saline 105 % of control | dose: 200.0 mg/kg/injection, schedule: Q01DX009 (ip), vehicle: saline 115 % of control | dose: 400.0 mg/kg/injection, schedule: Q01DX001 (ip), vehicle: saline 108 % of control

O=C(Nc1ccc2ccccc2c1)c1ccc(F)cc1
inactive: [2] 97 % of control | [3] 102 % of control | [4] 94 % of control

CCC(C)C(CCN1CCCC1)(CNC(=O)CN(CC)CC)c1cccc2ccccc12 (stereo unspecified)
inactive: [1] 95 % of control

Cc1c2cnccc2c(C)c2c1c1ccccc1n2CCCCCC#N
inactive: [5] 100 % of control | [6] 97 % of control | [7] 100 % of control

CNC(=O)NCCCCCCCCCCC(=O)O
inactive: [2] 104 % of control | [3] 91 % of control | [4] 106 % of control

CCCCCOC(=O)CN(CC(=O)OCCCCC)c1ccc(C=O)cc1
inactive: dose: 100.0 mg/kg/injection, schedule: Q04DX003 (ip), vehicle: saline with Tween-80 103 % of control | dose: 200.0 mg/kg/injection, schedule: Q04DX003 (ip), vehicle: saline with Tween-80 100 % of control | dose: 400.0 mg/kg/injection, schedule: Q04DX003 (ip), vehicle: saline with Tween-80 92 % of control

CC/C(=C\c1ccc(Cl)cc1)[N+](=O)[O-]
inactive: [8] 98 % of control | [9] 100 % of control | [10] 100 % of control | [11] 88 % of control | [12] 105 % of control | [5] 101 % of control and 111 % of control

Cc1cc(C)nc(NC(N)=NCCc2ccccc2)n1
inactive: [8] 101 % of control | dose: 12.5 mg/kg/injection, schedule: Q04DX003 (ip), vehicle: Klucel (hydroxypropylcellulose) (HPC) 102 % of control | [9] 101 % of control | [10] 100 % of control | [11] 101 % of control | [12] 102 % of control

CCC(=O)Nc1cc(C(C)C)ccc1C
inactive: [2] 107 % of control | [5] 97 % of control | [3] 110 % of control | [6] 97 % of control | [4] 103 % of control | [7] 104 % of control

NNC(=O)CSSCC(=O)NN
inactive: [13] 101 % of control

Cc1ccc(/C=C2/C=C(c3ccccc3)OC2=O)cc1
inactive: dose: 50.0 mg/kg/injection, schedule: Q01DX009 (ip), vehicle: alcohol 87 % of control | dose: 100.0 mg/kg/injection, schedule: Q01DX009 (ip), vehicle: alcohol 87 % of control | dose: 100.0 mg/kg/injection, schedule: Q04DX003 (ip), vehicle: alcohol 92 % of control | dose: 200.0 mg/kg/injection, schedule: Q01DX009 (ip), vehicle: alcohol 88 % of control | dose: 200.0 mg/kg/injection, schedule: Q04DX003 (ip), vehicle: alcohol 95 % of control

CC1=COC2CCCCC2O1 (stereo unspecified) (tested in a mixture with another compound)
inactive: dose: 50.0 mg/kg/injection, schedule: Q01DX009 (ip), vehicle: acetone 92 % of control | dose: 100.0 mg/kg/injection, schedule: Q01DX009 (ip), vehicle: acetone 95 % of control | dose: 100.0 mg/kg/injection, schedule: Q04DX003 (ip), vehicle: acetone 103 % of control and 94 % of control | dose: 200.0 mg/kg/injection, schedule: Q04DX003 (ip), vehicle: acetone 104 % of control and 96 % of control and 100 % of control | dose: 400.0 mg/kg/injection, schedule: Q04DX003 (ip), vehicle: acetone 96 % of control and 89 % of control

CCOC(=O)C(C(=O)OCC)C(=O)c1cccc2c1ccc1ccccc12
inactive: dose: 100.0 mg/kg/injection, schedule: Q04DX002 (ip), vehicle: saline with Tween-80 95 % of control | dose: 200.0 mg/kg/injection, schedule: Q04DX002 (ip), vehicle: saline with Tween-80 107 % of control | dose: 400.0 mg/kg/injection, schedule: Q04DX002 (ip), vehicle: saline with Tween-80 100 % of control

O=C1Cc2ccccc2C(=O)N1
inactive: dose: 25.0 mg/kg/injection, schedule: Q01DX Z (ip), vehicle: carboxymethylcellulose (CMC) 91 % of control | dose: 40.0 mg/kg/injection, schedule: Q01DX Z (ip), vehicle: carboxymethylcellulose (CMC) 104 % of control | dose: 60.0 mg/kg/injection, schedule: Q01DX Z (ip), vehicle: carboxymethylcellulose (CMC) 112 % of control | dose: 90.0 mg/kg/injection, schedule: Q01DX Z (ip), vehicle: carboxymethylcellulose (CMC) 100 % of control | dose: 100.0 mg/kg/injection, schedule: Q04DX003 (ip), vehicle: saline sonified 100 % of control | dose: 200.0 mg/kg/injection, schedule: Q04DX003 (ip), vehicle: saline sonified 99 % of control | dose: 400.0 mg/kg/injection, schedule: Q04DX003 (ip), vehicle: saline sonified 100 % of control

CN(C)C(=S)[S][Sb]([c]1ccccc1)[c]1ccccc1
inactive: dose: 100.0 mg/kg/injection, schedule: Q01DX001 (ip), vehicle: other 96 % of control

C#CCO
inactive: dose: 12.0 mg/kg/injection, schedule: Q01DX009 (ip), vehicle: saline 107 % of control | dose: 25.0 mg/kg/injection, schedule: Q01DX009 (ip), vehicle: saline 110 % of control | dose: 50.0 mg/kg/injection, schedule: Q01DX009 (ip), vehicle: saline 94 % of control

CC1=NCCCN=C(C)C(C)=NCCCN=C1C.[Br][Co][Br]
inactive: [9] 100 % of control | [11] 96 % of control | [2] 95 % of control | [5] 106 % of control | [3] 110 % of control | [6] 90 % of control

O=C1OC(c2cccc(Cl)c2)=N/C1=C\c1ccccc1
inactive: [13] 98 % of control | dose: 400.0 mg/kg/injection, schedule: Q04DX002 (ip), vehicle: Klucel (hydroxypropylcellulose) (HPC) 104 % of control
